Test results reported in ChEMBL document CHEMBL1139430, “Synthesis of a natural product-inspired eight-membered ring lactam library via ring-closing metathesis” (Bioorg Med Chem Lett, 2008).

Experiments:
[1] = tested on: L1210; test: Antiproliferative activity against mouse L1210 cells at day 4 by MTS/PMS assay; format: functional, cell-based; settings: L1210, 96 h
[2] = tested on: HL-60; test: Antiproliferative activity against human HL60 cells at 62.5 to 156.25 uM at day 4 by MTS/PMS assay; format: functional
[3] = tested on: HL-60; test: Antiproliferative activity against human HL60 cells at day 4 by MTS/PMS assay; format: functional, cell-based; settings: HL-60, 96 h
[4] = Antiproliferative activity against mouse Pan02 cells at day 4 by MTS/PMS assay; format: functional, cell-based; settings: Pan02, 96 h

SMILES | IC50 [1] [µM] | inhibition (INH) [2] [%] | IC50 [3] [µM] | IC50 [4] [µM]
COc1ccc([C@H]2/C=C\C[C@H](NS(=O)(=O)c3cccc4cccnc34)CC(=O)N2Cc2ccc(F)cc2)cc1 | 15.4 | <50 |  | 
COc1ccc(C(=O)N[C@H]2C/C=C\[C@H](c3ccc(OC)cc3)N(Cc3ccc(F)cc3)C(=O)C2)cc1 (relative stereo) | 25.2 |  | 40.1 | 34.9
CCCCS(=O)(=O)N[C@H]1C/C=C\[C@H](c2ccc(OC)cc2)N(Cc2ccc(F)cc2)C(=O)C1 (relative stereo) | 37.9 | <50 |  | 
COc1ccc([C@H]2/C=C\C[C@H](NS(=O)(=O)c3ccc(C)cc3)CC(=O)N2Cc2ccc(F)cc2)cc1 (relative stereo) | 11 | <50 |  | 
COc1ccc([C@H]2/C=C\C[C@H](NC(=O)c3ccccc3)CC(=O)N2Cc2ccc(F)cc2)cc1 (relative stereo) | 27.1 |  | 54.7 | 40.6
COc1ccc([C@H]2/C=C\C[C@H](NC(=O)C3CCCC3)CC(=O)N2Cc2ccc(F)cc2)cc1 (relative stereo) | 40.1 | <50 |  | 
COc1ccc([C@H]2/C=C\C[C@H](NS(=O)(=O)c3ccc4ccccc4c3)CC(=O)N2Cc2ccc(F)cc2)cc1 (relative stereo) | 8.5 | <50 |  | 
